Results published in patent publication US8822505B2, “Azetidine derivatives” (Hoffmann-La Roche Inc., priority 2012, dated 2014).
Counter-ions that a name gives are not always drawn.

Experiments:
human Cat L = human Cat L (Homo sapiens (Human), UniProt P07711); experiment: Cathepsin enzyme inhibition assay (human Cat L); type: biochemical; conditions: enzyme 1 nM, substrate Z-Val-Val-Arg-AMC 20 μM
Experimental: (§1) Cathepsin Enzyme Inhibition Assay
(§2) Enzyme activity is measured by observing the increase in fluorescence intensity caused by cleavage of a peptide substrate containing a fluorophore whose emission is quenched in the intact peptide.
(§3) Assay buffer: 100 mM potassium phosphate pH 6.5, EDTA-Na 5 mM, Triton X-100 0.001%, DTT 5 mM.
(§4) Enzymes (all at 1 nM): human and mouse Cathepsin S, Cat K, Cat B, Cat L.
(§5) Substrate (20 μM): Z-Val-Val-Arg-AMC, except for Cat K which uses Z-Leu-Arg-AMC (both from Bachem).
Excitation 360 nm, Emission 465 nm.
Enzyme is added to the substance dilutions in 96-well microtitre plates and the reaction is started with substrate. Fluorescence emission is measured over 20 minutes, during which time a linear increase is observed in the absence of inhibitor. IC50 are calculated by standard methods.
Inhibition of human Cat S, mouse Cat S, human Cat K, human Cat B, human Cat L and mouse Cat L have been measured separately. The results obtained for human Cat S and L for representative compounds of the invention are expressed in the following table in μM.

human Cat S = human Cat S (Homo sapiens (Human), UniProt P25774); experiment: Cathepsin enzyme inhibition assay (human Cat S); type: biochemical; conditions: enzyme 1 nM, substrate Z-Val-Val-Arg-AMC 20 μM
human Cat S, sequence (P25774 115-331): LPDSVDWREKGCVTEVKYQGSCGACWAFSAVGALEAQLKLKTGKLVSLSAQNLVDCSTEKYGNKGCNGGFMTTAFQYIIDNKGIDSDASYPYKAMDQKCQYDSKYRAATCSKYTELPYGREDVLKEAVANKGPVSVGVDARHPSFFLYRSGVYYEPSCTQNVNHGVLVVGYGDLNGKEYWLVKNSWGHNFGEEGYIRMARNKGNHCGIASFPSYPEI
Experimental: as §1, §2, §3, §4, §5
Enzyme is added to the substance dilutions in 96-well microtitre plates and the reaction is started with substrate. […] IC50 are calculated by standard methods.
Inhibition of human Cat S, mouse Cat S, human Cat K, human Cat B, human Cat L and mouse Cat L have been measured separately.

human Cat L, sequence (P07711 114-333): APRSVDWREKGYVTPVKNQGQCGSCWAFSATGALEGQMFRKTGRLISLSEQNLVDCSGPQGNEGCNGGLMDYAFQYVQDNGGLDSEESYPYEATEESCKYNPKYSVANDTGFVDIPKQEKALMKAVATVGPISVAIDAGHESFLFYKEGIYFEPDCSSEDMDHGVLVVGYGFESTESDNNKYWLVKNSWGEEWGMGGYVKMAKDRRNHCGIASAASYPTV

| Compound | IC50 (human Cat L; pH 6.5, hydrochloride) [nM] | IC50 (human Cat S; pH 6.5, hydrochloride) [nM] | IC50 (human Cat L; pH 6.5) [nM] | IC50 (human Cat S; pH 6.5) [nM] |
| --- | --- | --- | --- | --- |
| N#CC1(NC(=O)[C@@H]2C[C@@H](S(=O)(=O)c3ccc(F)cc3Cl)CN2C(=O)C2(c3ncc(Cl)cc3F)CCN2)CC1 (stereo partly drawn) [Example 31, (2S,4R)-4-(2-Chloro-4-fluoro-benzenesulfonyl)-1-[2-(5-chloro-3-fluoro-pyridin-2-yl)-azetidine-2-carbonyl]-pyrrolidine-2-carboxylic acid (1-cyano-cyclopropyl)-amide; hydrochloride] | 81.6 | 1.57 | – | – |
| N#CC1(NC(=O)[C@@H]2C[C@@H](S(=O)(=O)c3ccc(F)cc3Cl)CN2C(=O)C2(c3ncc(Br)cc3F)CCN2)CC1 (stereo partly drawn) [Example 36, (2S,4R)-1-[2-(5-Bromo-3-fluoro-pyridin-2-yl)-azetidine-2-carbonyl]-4-(2-chloro-4-fluoro-benzenesulfonyl)-pyrrolidine-2-carboxylic acid (1-cyano-cyclopropyl)-amide hydrochloride] | – | – | 621 | 1.42 |
| Cn1cc(-c2ccc(S(=O)(=O)[C@@H]3C[C@@H](C(=O)NC4(C#N)CC4)N(C(=O)C4(c5ncc(Cl)cc5F)CCN4C(=O)OC(C)(C)C)C3)c(Cl)c2)cn1 (stereo partly drawn) [Example 45, tert-butyl 2-(5-chloro-3-fluoropyridin-2-yl)-2-((2S,4R)-4-(2-chloro-4-(1-methyl-1H-pyrazol-4-yl)phenylsulfonyl)-2-(1-cyanocyclopropylcarbamoyl)pyrrolidine-1-carbonyl)azetidine-1-carboxylate] | – | – | 625 | 0.965 |
| N#CC1(NC(=O)[C@@H]2C[C@@H](S(=O)(=O)c3ccccc3Cl)CN2C(=O)C2(c3ncc(Cl)cc3F)CNC2)CC1 [Example 12, (2S,4R)-1-(3-(5-Chloro-3-fluoropyridin-2-yl)azetidine-3-carbonyl)-4-(2-chlorophenylsulfonyl)-N-(1-cyanocyclopropyl)pyrrolidine-2-carboxamide] | – | – | 23.6 | 1.07 |
| CN1CC(C(=O)N2C[C@H](S(=O)(=O)c3ccccc3Cl)C[C@H]2C(=O)NC2(C#N)CC2)(c2ncc(Cl)cc2F)C1 [Example 16, (2S,4R)-4-(2-Chloro-benzenesulfonyl)-1-[3-(5-chloro-3-fluoro-pyridin-2-yl)-1-methyl-azetidine-3-carbonyl]-pyrrolidine-2-carboxylic acid (1-cyano-cyclopropyl)-amide] | – | – | 39.8 | 0.525 |
| C[C@H](Oc1ccc(S(=O)(=O)[C@@H]2C[C@@H](C(=O)NC3(C#N)CC3)N(C(=O)C3(c4ncc(Br)cc4F)CCN3C(=O)OC(C)(C)C)C2)c(Cl)c1)C(F)(F)F (stereo partly drawn) [Example 30, 2-(5-Bromo-3-fluoro-pyridin-2-yl)-2-[(2S,4R)-4-[2-chloro-4-((S)-2,2,2-trifluoro-1-methyl-ethoxy)-benzenesulfonyl]-2-(1-cyano-cyclopropylcarbamoyl)-pyrrolidine-1-carbonyl]-azetidine-1-carboxylic acid tert-butyl ester] | – | – | 1060 | 2.22 |
| CC(C)(C)OC(=O)N1CC(C(=O)N2C[C@H](S(=O)(=O)c3ccc(OCC(F)(F)F)cc3Cl)C[C@H]2C(=O)NC2(C#N)CC2)(c2ccc(Br)cn2)C1 [Example 5, 3-(5-Bromo-pyridin-2-yl)-3-[(2S,4R)-4-[2-chloro-4-(2,2,2-trifluoro-ethoxy)-benzenesulfonyl]-2-(1-cyano-cyclopropylcarbamoyl)-pyrrolidine-1-carbonyl]-azetidine-1-carboxylic acid tert-butyl ester] | – | – | 753 | 3.69 |
| N#CC1(NC(=O)[C@@H]2C[C@@H](S(=O)(=O)c3ccc(OCC(F)(F)F)cc3Cl)CN2C(=O)C2(c3ccc(Br)cn3)CNC2)CC1 [Example 7, (2S,4R)-1-[3-(5-Bromo-pyridin-2-yl)-azetidine-3-carbonyl]-4-[2-chloro-4-(2,2,2-trifluoro-ethoxy)-benzenesulfonyl]-pyrrolidine-2-carboxylic acid (1-cyano-cyclopropyl)-amide] | – | – | 73.5 | 3.82 |
| N#CC1(NC(=O)[C@@H]2C[C@@H](S(=O)(=O)c3ccc(OCC(F)(F)F)cc3Cl)CN2C(=O)C2(c3ncc(Cl)cc3F)CNC2)CC1 [Example 20, (2S,4R)-1-(3-(5-Chloro-3-fluoropyridin-2-yl)azetidine-3-carbonyl)-4-(2-chloro-4-(2,2,2-trifluoroethoxy)phenylsulfonyl)-N-(1-cyanocyclopropyl)pyrrolidine-2-carboxamide] | – | – | 78.2 | 2.92 |
| C[C@H](Oc1ccc(S(=O)(=O)[C@@H]2C[C@@H](C(=O)NC3(C#N)CC3)N(C(=O)C3(c4ncc(Br)cc4F)CN(C(=O)OC(C)(C)C)C3)C2)c(Cl)c1)C(F)(F)F [Example 33, 3-(5-Bromo-3-fluoro-pyridin-2-yl)-3-[(2S,4R)-4-[2-chloro-4-((S)-2,2,2-trifluoro-1-methyl-ethoxy)-benzenesulfonyl]-2-(1-cyano-cyclopropylcarbamoyl)-pyrrolidine-1-carbonyl]-azetidine-1-carboxylic acid tert-butyl ester] | – | – | 89.5 | 3.54 |
| CC(C)(C)OC(=O)N1CC(C(=O)N2C[C@H](S(=O)(=O)c3ccccc3Cl)C[C@H]2C(=O)NC2(C#N)CC2)(c2ncc(Br)cc2F)C1 [Example 11, tert-Butyl 3-(5-bromo-3-fluoropyridin-2-yl)-3-((2S,4R)-4-(2-chlorophenylsulfonyl)-2-(1-cyanocyclopropylcarbamoyl)pyrrolidine-1-carbonyl)azetidine-1-carboxylate] | – | – | 70.5 | 1.27 |
| Cc1cc(-c2ccc(S(=O)(=O)[C@@H]3C[C@@H](C(=O)NC4(C#N)CC4)N(C(=O)C4(c5ncc(Br)cc5F)CCN4C(=O)OC(C)(C)C)C3)c(Cl)c2)ccn1 (stereo partly drawn) [Example 42, 2-(5-Bromo-3-fluoro-pyridin-2-yl)-2-[(2S,4R)-4-[2-chloro-4-(2-methyl-pyridin-4-yl)-benzenesulfonyl]-2-(1-cyano-cyclopropylcarbamoyl)-pyrrolidine-1-carbonyl]-azetidine-1-carboxylic acid tert-butyl ester] | – | – | 662 | 4.6 |
| C[C@H](Oc1ccc(S(=O)(=O)[C@@H]2C[C@@H](C(=O)NC3(C#N)CC3)N(C(=O)C3(c4ncc(Br)cc4F)CN(CC(F)F)C3)C2)c(Cl)c1)C(F)(F)F [Example 49, (2S,4R)-1-[3-(5-Bromo-3-fluoro-pyridin-2-yl)-1-(2,2-difluoro-ethyl)-azetidine-3-carbonyl]-4-[2-chloro-4-((S)-2,2,2-trifluoro-1-methyl-ethoxy)-benzenesulfonyl]-pyrrolidine-2-carboxylic acid (1-cyano-cyclopropyl)-amide] | – | – | 5 | 1 |
| C[C@H](Oc1ccc(S(=O)(=O)[C@@H]2C[C@@H](C(=O)NC3(C#N)CC3)N(C(=O)C3(c4ncc(Br)cc4F)CN(C=O)C3)C2)c(Cl)c1)C(F)(F)F [Example 50, (2S,4R)-1-[3-(5-Bromo-3-fluoro-pyridin-2-yl)-1-formyl-azetidine-3-carbonyl]-4-[2-chloro-4-((S)-2,2,2-trifluoro-1-methyl-ethoxy)-benzenesulfonyl]-pyrrolidine-2-carboxylic acid (1-cyano-cyclopropyl)-amide] | – | – | 5 | 0.9 |
| CCN1CC(C(=O)N2C[C@H](S(=O)(=O)c3ccccc3Cl)C[C@H]2C(=O)NC2(C#N)CC2)(c2ncc(Br)cc2F)C1 [Example 15, (2S,4R)-1-[3-(5-Bromo-3-fluoro-pyridin-2-yl)-1-ethyl-azetidine-3-carbonyl]-4-(2-chloro-benzenesulfonyl)-pyrrolidine-2-carboxylic acid (1-cyano-cyclopropyl)-amide] | – | – | 20.1 | 0.721 |
| CC(C)(C)OC(=O)N1CCC1(C(=O)N1C[C@H](S(=O)(=O)c2ccc(F)cc2Cl)C[C@H]1C(=O)NC1(C#N)CC1)c1ncc(Br)cc1F (stereo partly drawn) [Example 26, 2-(5-Bromo-3-fluoro-pyridin-2-yl)-2-[(2S,4R)-4-(2-chloro-4-fluoro-benzenesulfonyl)-2-(1-cyano-cyclopropylcarbamoyl)-pyrrolidine-1-carbonyl]-azetidine-1-carboxylic acid tert-butyl ester] | – | – | 471 | 4.45 |
| Cc1cc(-c2ccc(S(=O)(=O)[C@@H]3C[C@@H](C(=O)NC4(C#N)CC4)N(C(=O)C4(c5ncc(Cl)cc5F)CCN4)C3)c(Cl)c2)ccn1 (stereo partly drawn) [Example 43, (2S,4R)-1-[2-(5-Chloro-3-fluoro-pyridin-2-yl)-azetidine-2-carbonyl]-4-[2-chloro-4-(2-methyl-pyridin-4-yl)-benzenesulfonyl]-pyrrolidine-2-carboxylic acid (1-cyano-cyclopropyl)-amide hydrochloride] | – | – | 86.6 | 2.33 |
| N#CC1(NC(=O)[C@@H]2C[C@@H](S(=O)(=O)c3ccc(OCC(F)(F)F)cc3Cl)CN2C(=O)C2(c3ccc(Br)cn3)CN(CC(F)F)C2)CC1 [Example 9, (2S,4R)-1-[3-(5-Bromo-pyridin-2-yl)-1-(2,2-difluoro-ethyl)-azetidine-3-carbonyl]-4-[2-chloro-4-(2,2,2-trifluoro-ethoxy)-benzenesulfonyl]-pyrrolidine-2-carboxylic acid (1-cyano-cyclopropyl)-amide] | – | – | 91.7 | 0.779 |
